In patent US7932063B2, “Treatment of biomass to obtain fermentable sugars” (E. I. du Pont de Nemours and Company, priority 2005, dated 2011):
Where two headings read alike, the source gives them in different places.

Test system: Z. mobilis strain 8b
[1] = medium supplemented with 6 g/L acetamide, pH 6.0, 30° C., vs unsupplemented control, FIG. 1
[2] = medium supplemented with 7.2 g/L acetic acid, pH 6.0, 30° C., vs unsupplemented control, FIG. 1

Excerpt: Fermentation medium was composed of 10 g/L yeast extract, 2 g/L KH2PO4, 70 g/L glucose, 40 g/L xylose and 0.1 M MES buffer.

Compound | final density of Z. mobilis [1] | growth rate of Z. mobilis [1] | inhibition of biocatalyst growth (summary statement referring to Example 12) | cell yield (as measured by dry cell mass) [2] | growth rate of Z. mobilis [2]
CC(N)=O [acetamide] | no influence | no influence | non-inhibitory |  | 
CC(=O)O [acetic acid] |  |  |  | lower cell yield | reduced growth rate
